# Results: ChEMBL document CHEMBL3232938, “Design, synthesis, and biological evaluation of dihydroartemisinin-fluoroquinolone conjugates as a novel type of potential antitubercular agents” (2014)
# What was measured:
# Format in all cases: functional
# Staphylococcus aureus [1] = experiment: Antibacterial activity against Staphylococcus aureus assessed as growth inhibition after 7 days by microtiter plate assay; details: 168 h
# Escherichia coli [2] = experiment: Antibacterial activity against duck Escherichia coli assessed as growth inhibition after 7 days by microtiter plate assay; details: 168 h
# Pseudomonas aeruginosa [3] = experiment: Antibacterial activity against Pseudomonas aeruginosa assessed as zone of inhibition at 2 ug/ml; details: read-out: DIZ
# Staphylococcus aureus [4] = experiment: Antibacterial activity against Staphylococcus aureus assessed as zone of inhibition at 2 ug/ml; details: read-out: DIZ
# [5] = test system: Mycobacterium tuberculosis; experiment: Antibacterial activity against drug-sensitive 1 ug/ml Mycobacterium tuberculosis clinical isolate 758 assessed as growth inhibition after 7 days by microtiter plate assay; details: isolate 758, 168 h
# Pseudomonas aeruginosa [6] = experiment: Antibacterial activity against Pseudomonas aeruginosa assessed as growth inhibition after 7 days by microtiter plate assay; details: 168 h
# [7] = test system: Mycobacterium tuberculosis; experiment: Antibacterial activity against drug-sensitive 1 ug/ml Mycobacterium tuberculosis clinical isolate 821 assessed as growth inhibition after 7 days by microtiter plate assay; details: isolate 821, 168 h
# Salmonella [8] = experiment: Antibacterial activity against Salmonella assessed as growth inhibition after 7 days by microtiter plate assay; details: 168 h
# [9] = test system: Mycobacterium tuberculosis; experiment: Antibacterial activity against drug-sensitive 1 ug/ml Mycobacterium tuberculosis clinical isolate 741 assessed as growth inhibition after 7 days by microtiter plate assay; details: isolate 741, 168 h
# Salmonella [10] = experiment: Antibacterial activity against Salmonella assessed as zone of inhibition at 2 ug/ml; details: read-out: DIZ
# Escherichia coli [11] = experiment: Antibacterial activity against Escherichia coli assessed as growth inhibition after 7 days by microtiter plate assay; details: 168 h
# [12] = test system: Mycobacterium tuberculosis; experiment: Antibacterial activity against Mycobacterium tuberculosis H37Rv ATCC 27294 assessed as growth inhibition after 7 days by microtiter plate assay; details: H37Rv ATCC 27294, 168 h
# [13] = test system: Mycobacterium tuberculosis; experiment: Antibacterial activity against drug-sensitive 1 ug/ml Mycobacterium tuberculosis clinical isolate 753 assessed as growth inhibition after 7 days by microtiter plate assay; details: isolate 753, 168 h
# Escherichia coli [14] = experiment: Antibacterial activity against Escherichia coli assessed as zone of inhibition at 2 ug/ml; details: read-out: DIZ
# [15] = test system: Mycobacterium tuberculosis; experiment: Antibacterial activity against drug-sensitive 1 ug/ml Mycobacterium tuberculosis clinical isolate 760 assessed as growth inhibition after 7 days by microtiter plate assay; details: isolate 760, 168 h
# Escherichia coli [16] = experiment: Antibacterial activity against duck Escherichia coli assessed as zone of inhibition at 2 ug/ml; details: read-out: DIZ
smiles,measurement,setting,value
O=C(O)c1cn(-c2ccc(F)cc2)c2cc(N3CCNCC3)c(F)cc2c1=O [SARAFLOXACIN],MIC,Staphylococcus aureus [1],16 µg/mL
same,MIC,Escherichia coli [2],4 µg/mL
same,zone of inhibition at 2 µg/mL,Pseudomonas aeruginosa [3],20 mm
same,zone of inhibition at 2 µg/mL,Staphylococcus aureus [4],< 5 mm
same,MIC,[5],8 µg/mL
same,MIC,Pseudomonas aeruginosa [6],2 µg/mL
same,MIC,[7],8 µg/mL
same,MIC,Salmonella [8],16 µg/mL
same,MIC,[9],16 µg/mL
same,zone of inhibition at 2 µg/mL,Salmonella [10],25 mm
same,MIC,Escherichia coli [11],0.5 µg/mL
same,MIC,[12],5.19 µM
same,MIC,[13],8 µg/mL
same,zone of inhibition at 2 µg/mL,Escherichia coli [14],24 mm
same,MIC,[15],8 µg/mL
same,zone of inhibition at 2 µg/mL,Escherichia coli [16],38 mm
